The conditions of data set [1]: cited from earlier work.
Another data set in a line: T1 relaxation in water. The data set is classed as physicochemical.
Another data set in a line: T1 relaxation in plasma. The data set is classed as physicochemical.

As for `CNC[C@H](O)[C@@H](O)[C@H](O)[C@H](O)CO.CNC[C@H](O)[C@@H](O)[C@H](O)[C@H](O)CO.O=C([O-])CN(CCN(CC(=O)[O-])CC(=O)O)CCN(CC(=O)[O-])CC(=O)O.[Gd+3]` [MAGNEVIST], in data set [1] (intravenous injection), the distribution result is given as “extra-cellular”; the “passage of intact cell membranes and extrarenal excretion” value is “practically not at all observed”; the route of excretion result is recorded as “excreted via the kidneys by glomerular secretion”. Also, in data set [1] (patients with limited kidney function), the “rate of excretion in renal insufficiency” value is “excreted only very slowly”.

Regarding `C[NH2+]C[C@H](O)[C@@H](O)[C@H](O)[C@H](O)CO.O=C([O-])CN(CCN(CC(=O)[O-])CC(=O)[O-])CCN(CC(=O)[O-])CC(=O)Nc1ccccc1.[Gd+3]` [Example 2, N-Methylglucamine Salt of the Gadolinium Complex of 3,6,9-Tris(carboxymethyl)-3,6,9-triazaundecanedioic Acid Phenyl Monoamide], the T1 relaxation in “T1 relaxation in water” stood at 3.79 ± 0.16 mmol⁻¹ s⁻¹; in the data set “T1 relaxation in plasma”, 5.45 ± 0.68 mmol⁻¹ s⁻¹.

These data come from US5399340A, “Use of amide complex compounds” (Schering Aktiengesellschaft, priority 1989, dated 1995).
